Experimental findings from paper PMC11091888, “Evaluation of Fusobacterium nucleatum Enoyl-ACP Reductase (FabK) as a Narrow-Spectrum Drug Target” (ACS Infectious Diseases, 2024) are described below.

In brackets after ≈: the same amount, converted by molar mass. Several values for one entry are separate records, joined by “and”; a condition that tells them apart may be missing. Equal values may be shown once. Entries after “also recorded” stand apart in the source; their conditions may differ. Read-outs that look alike come from different tables or passages of the source.

In one data set the test system is S. pyogenes 19615. Nature of the data set: Growth in FAS-II inhibitor with or without exogenous fatty acids. The class given is cell-based, Streptococcus pyogenes. The note with it: fatty acid mixture of Table S2. The method, then: (§1) To plates containing twofold serial dilutions of compounds, exponential phase cultures were added to a final OD600nm of 0.1. Plates containing F. nucleatum in Columbia broth were incubated at 37 °C inside of a Tecan Infinite 200 Pro, which was inside an anaerobic chamber; growth kinetics for Streptococcus spp. in brain heart infusion broth were done aerobically in the same Tecan instrument.

The test system of data set [1] is F. nucleatum 23726 complementation strains. Nature of the data set: MIC against F. nucleatum 23726 carrying FabK alanine-132 or threonine-132 under the wild-type fabK promoter. The settings on record: Fusobacterium nucleatum. The class given is cell-based. The procedure: The transformation of F. nucleatum 23726 was performed via electroporation as previously described,[41] except that Columbia broth was used. (i) Antisense vector: F. nucleatum gene silencing vector, pHFK2, was developed by inserting the ATc inducible paired-termini antisense sequences from the clostridial vector pMSPT into pCWU6, a F. nucleatum vector.[56] pCWU6 was amplified by PCR (CloneAmp polymerase) and recombined with the BamHI and KpnI fragments of pMSPT containing the Tet promoter and paired-termini sequences.[26] Antisense nucleotides targeting either 50 bp upstream and downstream of the fabK start codon (FabKAS1) or 25 bp upstream and 75 bp downstream (FabKAS2) were cloned into SphI and XhoI restriction sites of pHFK2. (ii) Complementation vectors: these were generated by PCR amplifying the fabK promoter and gene and introducing KpnI and HindIII restriction sites at 5′ and 3′ ends, respectively. Purified PCR amplicons were inserted into the KpnI and HindIII sites of pCWU6. (iii) Overexpression vectors: the corresponding gene, fabK or fabX, was amplified via PCR, introducing HindIII or SacI restriction sites to the 5′ end, respectively. BamHI restriction sites were introduced to the 3′ end of both. Purified PCR amplicons were inserted into the respective restriction sites of pHFK2. (iv) Allelic exchange vector: vector, pCWU8-FabK, was generated using a previously described protocol,[41],[56] whereby 1-kb regions upstream and downstream of fabK were cloned into the suicide vector pCWU8 using a Gibson Assembly Cloning Kit (New England Biolabs). The recombinant vector was transformed into strain F. nucleatum 23726ΔgalK, and successful integrants were collected that were resistant to thiamphenicol (5 μg/mL). […]
Compounds were twofold serially diluted (100–0.2 μg/mL) across a 96-well plate in 100 μL of media used for the specific organism (Table S4). […] Plates were incubated at 37 °C for up to 48 h, and MICs were read by visual inspection.

Data set [2] deals with F. nucleatum 23726. The experiment in a line: Growth in FAS-II inhibitor with or without exogenous fatty acids. Type of data set: cell-based, Fusobacterium nucleatum. The note with it: fatty acid mixture of Table S2. The procedure:
as §1

Data set [3] in a line: Cytotoxicity against HCT116 cells (resazurin viability). Type of data set: cell-based. The note with it: human, HCT116 colorectal carcinoma cells, maximum tested concentration 100 μg/mL. The method, then: This was done as described[36] using colorectal carcinoma HCT116 and Vero epithelial cells cultured at 37 °C in 5% CO2 in Dulbecco’s modified Eagle’s medium (DMEM) with 4.5 g/L glucose and L-glutamine. The medium was supplemented with 10% v/v FetalGro (Rocky Mountain Biologicals). Approximately 25,000/well were aliquoted into black 96-well plates (Greiner Bio-One) and incubated overnight, before being resuspended in DMEM supplemented with 20% Gibco KnockOut Serum Replacement (Thermo Fisher Scientific). […] Cell viability was analyzed using resazurin as described.[36]

The test system of data set [4] is F. nucleatum 23726 mutants JR1-JR4. The experiment in a line: MIC against 681-resistant mutants of F. nucleatum 23726. The note with it: for MIC: Fusobacterium nucleatum. Type of data set: cell-based, Fusobacterium nucleatum. The procedure: (§2) Compounds were twofold serially diluted (100–0.2 μg/mL) across a 96-well plate in 100 μL of media used for the specific organism (Table S4). For anaerobes, plates were incubated anaerobically at 37 °C for 1 h and then inoculated with approximately 10^5 to 10^6 CFU/well. Plates were incubated at 37 °C for up to 48 h, and MICs were read by visual inspection.
Overnight cultures of F. nucleatum 23726 were diluted 1:50 in fresh Columbia broth, which was used to inoculate 96-well plates containing twofold serial dilutions of compound 681. After 48 h of incubation, cultures were recovered from wells one dilution below the MIC, and this was used to establish the inocula for the subsequent passage into 96-well plates containing 681. This process was repeated until cultures grew at 8× the original MIC for two consecutive passages. Cultures were then plated onto Columbia blood agar plates and incubated for 72 h at 37 °C. Single colonies were collected into Columbia broth with 0.39 μg/mL of 681 and cultured for up to 48 h and then plated onto selective Columbia blood agar plates to further purify putative 681-resistant colonies.

Data set [5] deals with F. nucleatum 23726 overexpression strains. Nature of the data set: MIC against F. nucleatum 23726 transformed with empty vector, fabK or fabX under ATc-inducible promoter. Type of data set: cell-based, Fusobacterium nucleatum. The note with it: for MIC: Fusobacterium nucleatum. The procedure:
The transformation of F. nucleatum 23726 was performed via electroporation as previously described,[41] except that Columbia broth was used. (i) Antisense vector: F. nucleatum gene silencing vector, pHFK2, was developed by inserting the ATc inducible paired-termini antisense sequences from the clostridial vector pMSPT into pCWU6, a F. nucleatum vector.[56] pCWU6 was amplified by PCR (CloneAmp polymerase) and recombined with the BamHI and KpnI fragments of pMSPT containing the Tet promoter and paired-termini sequences.[26] Antisense nucleotides targeting either 50 bp upstream and downstream of the fabK start codon (FabKAS1) or 25 bp upstream and 75 bp downstream (FabKAS2) were cloned into SphI and XhoI restriction sites of pHFK2. (ii) Complementation vectors: these were generated by PCR amplifying the fabK promoter and gene and introducing KpnI and HindIII restriction sites at 5′ and 3′ ends, respectively. Purified PCR amplicons were inserted into the KpnI and HindIII sites of pCWU6. (iii) Overexpression vectors: the corresponding gene, fabK or fabX, was amplified via PCR, introducing HindIII or SacI restriction sites to the 5′ end, respectively. BamHI restriction sites were introduced to the 3′ end of both. Purified PCR amplicons were inserted into the respective restriction sites of pHFK2. (iv) Allelic exchange vector: vector, pCWU8-FabK, was generated using a previously described protocol,[41],[56] whereby 1-kb regions upstream and downstream of fabK were cloned into the suicide vector pCWU8 using a Gibson Assembly Cloning Kit (New England Biolabs). The recombinant vector was transformed into strain F. nucleatum 23726ΔgalK, and successful integrants were collected that were resistant to thiamphenicol (5 μg/mL). Since the suicide vector expresses GalK, which is toxic in the presence of 2-deoxy-D-galactose (2-DG), the compound 2-DG (0.25% w/v) was added to counter-select for mutants that underwent a second homologous recombination. Ten resulting colonies were then tested for deletion of fabK via PCR, using primers in Table S7. The experiment was independently performed twice for a total of 20 colonies screened for fabK deletion. All experiments were done anaerobically at 37 °C in tryptic soy broth supplemented with 1% w/v peptone and 0.25% w/v autoclaved L-cysteine hydrochloride (TSPC) or TSPC agar with thiamphenicol or 2-DG.
as §2

The test system of data set [6] is F. nucleatum 23726. Nature of the data set: MIC against F. nucleatum 23726. Type of data set: cell-based, Fusobacterium nucleatum. The settings on record: Fusobacterium nucleatum, 23726, F. nucleatum 23726 wild-type; three biological replicates; read-out: MIC Fn 23726. The procedure:
as §2

The subject of the next data set is E. faecalis FA2–2ΔfabK. Nature of the data set: MIC against E. faecalis FA2-2 fabI+ (ΔfabK, possesses only FabI). Type of data set: cell-based, Enterococcus faecalis. The procedure:
as §2

As for `CS(=O)(=O)c1ccc2nc(NC(=O)NCc3nc(-c4ccc(Br)cc4)c[nH]3)sc2c1` [Compound 681, 1-((4-(4-bromophenyl)-1H-imidazole-2-yl)methyl)-3-(6-(methylsulfonyl)benzo[d]thiazol-2-yl)urea], the “Increase in biomass (OD600nm) in the presence of inhibitor and exogenous fatty acids” value in the data set with S. pyogenes 19615 was 4–5 fold. For the same molecule, the MIC in data set [1] (read-out: MIC, empty vector control) was 0.6 µg/mL; in data set [1] (read-out: MIC, threonine-132 FabK mutant) it was 2.5 to 5 µg/mL; in data set [1] (read-out: MIC, wild-type FabK (alanine-132)) it was 1.3 µg/mL; in data set [4] (read-out: MIC against mutant JR2), 6.3 µg/mL (≈ 12.4 µM); in data set [4] (read-out: MICs against mutants JR1-JR4), 3.1 to 12.5 µg/mL (≈ 6.12 to 24.7 µM); in data set [5] (read-out: MIC, FabK overexpression, induced) it was above 100 µg/mL. Further, the MIC in data set [5] (read-out: MIC, FabK overexpression, uninduced) was 0.8 µg/mL; in data set [5] (read-out: MIC, FabX overexpression, induced) it was 3.1 µg/mL; in data set [5] (read-out: MIC, FabX overexpression, uninduced), 0.8 µg/mL; in data set [5] (read-out: MIC, empty vector, induced), 0.4 µg/mL; in data set [5] (read-out: MIC, empty vector, uninduced), 0.8 µg/mL; in the data set on F. nucleatum 23726 [6] it was 0.4 µg/mL (≈ 0.79 µM). In the data set on E. faecalis FA2–2ΔfabK (Enterococcus faecalis, read-out: MIC Ef fabI+, E. faecalis FA2-2 ΔfabK, possesses only FabI), the MIC is above 100 µg/mL. Besides, the “Effect of exogenous fatty acids on growth inhibition of F. nucleatum” value in the data set on F. nucleatum 23726 [2] is listed as “did not attenuate; also recorded: did not rescue”. In addition, the 50% inhibitory concentration (IC50) at 24 h in data set [3] was above 100 µg/mL. Also, in data set [4] (12 bp deletion upstream of fabX), the “MIC against mutant JR2” value came to 3.1 µg/mL (≈ 6.12 µM). For the same molecule, the “MIC against mutant JR3” value in data set [4] (fabK TSS + 1: C > T) amounted to 3.1 µg/mL. Also, the “MIC, FabK overexpression, induced” value in data set [5] (F. nucleatum 23726 pTET-fabK, 62.5 ng/mL ATc) was above 100 µg/mL. Moreover, the “MIC Ef fabI+” value against E. faecalis FA2–2ΔfabK (E. faecalis FA2-2 ΔfabK, possesses only FabI) is 100 µg/mL and >100 µg/mL.
